pIC50, pKi: −log10 of the molar value. Where two headings read alike, the source gives them in different places. A value given as a limit tells only on which side of the number the result lay.

This note sets out measurements from patent publication US11155557B2, “Pyrazolopyrimidine compounds and methods of use thereof” (Genentech, Inc., priority 2016, dated 2021).

For test [1], the target named is isolated recombinant JAK2 kinase domain (Homo sapiens (Human), UniProt O60674). As to the kind of experiment: JAK2 enzyme assay (Caliper LabChip, Ki).
Sequence of isolated recombinant JAK2 kinase domain (O60674 849-1124): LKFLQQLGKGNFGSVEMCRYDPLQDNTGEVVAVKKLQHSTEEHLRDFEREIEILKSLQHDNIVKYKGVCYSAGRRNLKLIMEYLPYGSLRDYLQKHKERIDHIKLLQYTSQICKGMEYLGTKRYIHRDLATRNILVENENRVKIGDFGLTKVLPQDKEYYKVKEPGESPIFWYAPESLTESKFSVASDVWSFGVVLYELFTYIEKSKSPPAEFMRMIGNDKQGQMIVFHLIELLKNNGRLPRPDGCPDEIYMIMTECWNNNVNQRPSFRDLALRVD
Description: JAK Enzyme Assays were Carried Out as Follows:
The activity of the isolated recombinant JAK1 and JAK2 kinase domain was measured by monitoring phosphorylation of a peptide derived from JAK3 ([sequence] fluorescently labeled on the N-terminus with 5-carboxyfluorescein) using the Caliper LabChip R technology (Caliper Life Sciences, Hopkinton, Mass.). […] After termination of the kinase reaction, the proportion of phosphorylated product was determined as a fraction of total peptide substrate using the Caliper LabChip R 3000 according to the manufacturer's specifications.
The subject of test [2] is JAK1-dependent STAT6 phosphorylation in BEAS-2B human bronchial epithelial cells. As to the kind of experiment: JAK1 pathway assay: IL-13 stimulated STAT6 phosphorylation in BEAS-2B cells. The test is classed as cell-based. The following applies: Homo sapiens, BEAS-2B, BEAS-2B cells, IL-13 stimulation; read-out: IL-13 p-STAT6 BEAS-2B IC50. Summed up: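 BEAS-2B bronchial epithelial cells plated one day before, run in complete growth medium. Phospho-STAT6 in lysates measured by MesoScale Discovery; EC50 reported.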

Test [3] addresses isolated recombinant JAK1 kinase domain (Homo sapiens (Human), UniProt P23458). The test can be described thus: JAK1 enzyme assay (Caliper LabChip, Ki). In kind it is biochemical. As for the experimental part: The activity of the isolated recombinant JAK1 and JAK2 kinase domain was measured by monitoring phosphorylation of a peptide derived from JAK3 ([…] fluorescently labeled on the N-terminus with 5-carboxyfluorescein) using the Caliper LabChip R technology (Caliper Life Sciences, Hopkinton, Mass.).

Sequence of isolated recombinant JAK1 kinase domain (P23458 875-1153): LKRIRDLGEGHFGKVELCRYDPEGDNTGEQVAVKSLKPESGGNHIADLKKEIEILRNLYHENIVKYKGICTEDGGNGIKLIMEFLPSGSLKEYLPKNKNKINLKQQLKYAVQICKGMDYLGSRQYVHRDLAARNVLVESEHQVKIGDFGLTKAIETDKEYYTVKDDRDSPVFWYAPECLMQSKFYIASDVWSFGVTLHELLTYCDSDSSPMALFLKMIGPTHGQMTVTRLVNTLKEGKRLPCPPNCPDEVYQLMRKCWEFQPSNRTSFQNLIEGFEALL

Take `CN(CCC#N)C1CCN(C(=O)Cn2cc(NC(=O)c3cnn4cccnc34)c(-c3cc4ccccc4cc3OC(F)F)n2)CC1` [Example 63, N-[1-[2-[4-[2-cyanoethyl(methyl)amino]-1-piperidyl]-2-oxo-ethyl]-3-[3-(difluoromethoxy)-2-naphthyl]pyrazol-4-yl]pyrazolo[1,5-a]pyrimidine-3-carboxamide]: the negative logarithm of the Ki (pKi) was 9.24 in test [1] (read-out: JAK2 Ki) and 9.40 in test [3]. The negative logarithm of the IC50 (pIC50) in test [2] is 7.85.
For `N#CC1(CNC2CCN(C(=O)Cn3cc(NC(=O)c4cnn5cccnc45)c(-c4cc5sc(C(N)=O)cc5cc4OC(F)F)n3)CC2)CC1` [Example 64, N-[3-[2-carbamoyl-5-(difluoromethoxy)benzothiophen-6-yl]-1-[2-[4-[(1-cyanocyclopropyl)methylamino]-1-piperidyl]-2-oxo-ethyl]pyrazol-4-yl]pyrazolo[1,5-a]pyrimidine-3-carboxamide] the same measures were 9.46, 9.54 and below 6.00.
For `O=C(Nc1cn(CC(=O)N2CCC(CN3CCOCC3)CC2)nc1-c1cc2sccc2cc1OC(F)F)c1cnn2cccnc12` [Example 65, N-[3-[5-(difluoromethoxy)benzothiophen-6-yl]-1-[2-[4-(morpholinomethyl)-1-piperidyl]-2-oxo-ethyl]pyrazol-4-yl]pyrazolo[1,5-a]pyrimidine-3-carboxamide], the pKi is 9.22 in test [1] (read-out: JAK2 Ki) and 9.39 in test [3]. For the same compound, the negative-log IC50 (pIC50) in test [2] is 7.89.
For `O=C(Nc1cn(CC(=O)N2CCC(N3CCOCC3)CC2)nc1-c1cc2sccc2cc1OC(F)F)c1cnn2cccnc12` [Example 66, N-[3-[5-(difluoromethoxy)benzothiophen-6-yl]-1-[2-(4-morpholino-1-piperidyl)-2-oxo-ethyl]pyrazol-4-yl]pyrazolo[1,5-a]pyrimidine-3-carboxamide], the figures for the pKi in test [1] (read-out: JAK2 Ki) and in test [3] were 9.31 and 9.52, respectively. In test [2], the negative-log IC50 (pIC50) was 7.68.
As to `CCN1CCN(C(=O)Cn2cc(NC(=O)c3cnn4cccnc34)c(-c3cc4ccccc4cc3OC(F)F)n2)CC1` [Example 67, N-[3-[3-(difluoromethoxy)-2-naphthyl]-1-[2-(4-ethylpiperazin-1-yl)-2-oxo-ethyl]pyrazol-4-yl]pyrazolo[1,5-a]pyrimidine-3-carboxamide], the values for the pKi in test [1] and in test [3] were 8.39 and 8.68, respectively. Moreover, the negative logarithm of the IC50 (pIC50) in test [2] is 7.28.
As for `O=CN1CCN(C(=O)Cn2cc(NC(=O)c3cnn4cccnc34)c(-c3cc4ccccc4cc3OC(F)F)n2)CC1` [Example 68, N-[3-[3-(difluoromethoxy)-2-naphthyl]-1-[2-(4-formylpiperazin-1-yl)-2-oxo-ethyl]pyrazol-4-yl]pyrazolo[1,5-a]pyrimidine-3-carboxamide], the figures for the negative logarithm of the Ki (pKi) in test [1] and in test [3] were 8.79 and 9.06, respectively. The pIC50 in test [2] was 7.46.
`CN(C)C(=O)CN1CCN(C(=O)Cn2cc(NC(=O)c3cnn4cccnc34)c(-c3cc4ccccc4cc3OC(F)F)n2)CC1` [Example 69, N-[3-[3-(difluoromethoxy)-2-naphthyl]-1-[2-[4-[2-(dimethylamino)-2-oxo-ethyl]piperazin-1-yl]-2-oxo-ethyl]pyrazol-4-yl]pyrazolo[1,5-a]pyrimidine-3-carboxamide]: the pKi in test [1] (read-out: JAK2 Ki) was 9.03; in test [3], 9.36. Further, the negative-log IC50 (pIC50) in test [2] is 6.82.
Take `CC(C)(C)OC(=O)N1CCN(C(=O)Cn2cc(NC(=O)c3cnn4cccnc34)c(-c3cc4ccccc4cc3OC(F)F)n2)CC1` [Example 70, tert-butyl 4-[2-[3-[3-(difluoromethoxy)-2-naphthyl]-4-(pyrazolo[1,5-a]pyrimidine-3-carbonylamino)pyrazol-1-yl]acetyl]piperazine-1-carboxylate]: the pKi in test [1] (read-out: JAK2 Ki) is 8.94; in test [3] it was 9.46. For the same compound, the pIC50 in test [2] was 7.60.
For `O=C(Nc1cn(CC(=O)N2CCNCC2)nc1-c1cc2ccccc2cc1OC(F)F)c1cnn2cccnc12` [Example 71, N-[3-[3-(difluoromethoxy)-2-naphthyl]-1-(2-oxo-2-piperazin-1-yl-ethyl)pyrazol-4-yl]pyrazolo[1,5-a]pyrimidine-3-carboxamide], the pKi in test [1] (read-out: JAK2 Ki) is 8.80; in test [3] it was 9.07. Also, the negative-log IC50 (pIC50) in test [2] is 7.11.
As for `CN1CCC[C@@H]1Cn1cc(NC(=O)c2cnn3cccnc23)c(-c2cc3c(cc2OC(F)F)NCCS3)n1` [Example 72, N-[3-[6-(difluoromethoxy)-3,4-dihydro-2H-1,4-benzothiazin-7-yl]-1-[[(2R)-1-methylpyrrolidin-2-yl]methyl]pyrazol-4-yl]pyrazolo[1,5-a]pyrimidine-3-carboxamide], the pKi in test [1] (read-out: JAK2 Ki) and in test [3] was 9.66 throughout. For the same compound, the pIC50 in test [2] was 8.00.
For `CN1CCC[C@@H]1Cn1cc(NC(=O)c2cnn3cccnc23)c(-c2cc3c(cc2OC(F)F)NC(=O)CS3)n1` [Example 73, N-[3-[6-(difluoromethoxy)-3-oxo-4H-1,4-benzothiazin-7-yl]-1-[[(2R)-1-methylpyrrolidin-2-yl]methyl]pyrazol-4-yl]pyrazolo[1,5-a]pyrimidine-3-carboxamide], the pKi is 9.72 in test [1] (read-out: JAK2 Ki) and 9.70 in test [3]. For the same compound, the negative logarithm of the IC50 (pIC50) in test [2] is 8.05.
`CN1CCC[C@H]1Cn1cc(NC(=O)c2cnn3cccnc23)c(-c2cc3cn[nH]c3cc2OC(F)F)n1` [Example 76, N-[3-[6-(difluoromethoxy)-1H-indazol-5-yl]-1-[[(2S)-1-methylpyrrolidin-2-yl]methyl]pyrazol-4-yl]pyrazolo[1,5-a]pyrimidine-3-carboxamide]: the pKi in test [1] (read-out: JAK2 Ki) was 9.28; in test [3], 9.32. In addition, the pIC50 in test [2] was 7.77.
Regarding `CN1CCC[C@@H]1Cn1cc(NC(=O)c2cnn3cccnc23)c(-c2cc3cn[nH]c3cc2OC(F)F)n1` [Example 77, N-[3-[6-(difluoromethoxy)-1H-indazol-5-yl]-1-[[(2R)-1-methylpyrrolidin-2-yl]methyl]pyrazol-4-yl]pyrazolo[1,5-a]pyrimidine-3-carboxamide], the negative logarithm of the Ki (pKi) is 9.37 in test [1] (read-out: JAK2 Ki) and 9.55 in test [3]. For the same compound, the negative-log IC50 (pIC50) in test [2] was 8.05.
Regarding `O=C(Nc1cn(CCN[C@@H]2CCOC2)nc1-c1cc2c(cc1OC(F)F)NCCS2)c1cnn2cccnc12` [Example 78, N-[3-[6-(difluoromethoxy)-3,4-dihydro-2H-1,4-benzothiazin-7-yl]-1-[2-[[(3R)-tetrahydrofuran-3-yl]amino]ethyl]pyrazol-4-yl]pyrazolo[1,5-a]pyrimidine-3-carboxamide], the figures for the negative-log Ki (pKi) in test [1] (read-out: JAK2 Ki) and in test [3] were 10.00 and 9.72, respectively. Besides, in test [2], the pIC50 was 7.89.
For `CNCCn1cc(NC(=O)c2cnn3cccnc23)c(-c2cc3c(cc2OC(F)F)NC(=O)CS3)n1` [Example 79, N-[3-[6-(difluoromethoxy)-3-oxo-4H-1,4-benzothiazin-7-yl]-1-[2-(methylamino)ethyl]pyrazol-4-yl]pyrazolo[1,5-a]pyrimidine-3-carboxamide] the same measures were 9.89, 9.74 and 7.01.
On to `CNCCn1cc(NC(=O)c2cnn3cccnc23)c(-c2cc3c(cc2OC(F)F)NCCS3)n1` [Example 81, N-[3-[6-(difluoromethoxy)-3,4-dihydro-2H-1,4-benzothiazin-7-yl]-1-[2-(methylamino)ethyl]pyrazol-4-yl]pyrazolo[1,5-a]pyrimidine-3-carboxamide], for which the pKi was 9.96 in test [1] (read-out: JAK2 Ki) and 9.92 in test [3]. In test [2], the negative logarithm of the IC50 (pIC50) was 8.15.

Usually pKi stands for the negative decadic logarithm of the Ki, by convention in mol/L. One may read the pIC50 as −log10 of the IC50, conventionally taken in molar units.
